What was measured:
[1] = Measured relaxation parameters (19F MRI relaxation times) of pure gases and gas-O2 mixtures in vitro; type: physicochemical; settings: for T2′ / T1: in vitro, pure gas or gas-O2 breathing mixture; for T1: spin-lattice relaxation time
Description: The relaxation times for OFCB-O2 mixture In Vivo should be measured experimentally. We measured the relaxation times for pure OFCB and OFCB-O2 mixture in vitro.
While we were not first who measured the relaxation times for pure OFCB, to our knowledge, we are the first who characterized the OFCB-O2 breathing mixture.

[2] = Specific Absorption Rate (SAR) / scan safety inferred from the longer spin-lattice relaxation time; settings: summary statement
Description: While the spin-lattice relaxation time is 60% longer for OFCB compared to PFP, which limits the potential number of signal averages, the longer spin-lattice relaxation means that there are a smaller number of radio pulses with OFCB. This means that the Specific Absorption Rate (SAR) is lower for OFCB-O2 scans. […] The lower SAR value of OFCB scans means that ^19F OFCB lung MRI is safer for patients than MRI scans acquired using other inert fluorinated gases.

| SMILES | spin-lattice relaxation time longer compared to PFP ([1]; OFCB compared to PFP) [%] | T2′ [1] [ms] | T1 [1] [ms] | safer compared to PFP [2] [%] |
| --- | --- | --- | --- | --- |
| FC1(F)C(F)(F)C(F)(F)C1(F)F [OFCB, octafluorocyclobutane] | 60 | 10.5 ± 1.8 | 27.9 ± 0.8 | 60 |
| FC(F)(F)C(F)(F)C(F)(F)F [PFP, perfluoropropane, reference compound] | – | 6.26 ± 0.27 | 18.6 ± 0.4 | – |
